Assay results reported in patent US20080051400A1, “Methods for treating or preventing anemia or thrombocytopenia using a triheterocyclic compound” (Gemin X Biotechnologies Inc., priority 2006, published 2008).

Experiments:
[1] = test system: patients having myelodysplastic syndromes (MDS); assay: Multi-center, open label, dose escalation study in patients having myelodysplastic syndromes (MDS); type: in vivo, human
Procedure: In a multi-center, open label, dose escalation study, a group of eight patients having myelodysplastic syndromes (MDS) received intravenous doses of 7-40 mg/m^2 of the mesylate salt of Compound 1 administered as a 24-hour infusion every two weeks. These infusions were administered over a period of several weeks to several months, the first cycle of infusion was administered in a clinical unit but the subsequent four cycles were administered in the ambulatory setting using portable infusion pumps.

[2] = test system: patients having chronic lymphocytic leukemia (CLL); assay: Multi-center, double-blind, dose-ranging study in patients having chronic lymphocytic leukemia (CLL); type: in vivo, human
Procedure: In a multi-center, double-blind, dose-ranging study, two groups of patients having chronic lymphocytic leukemia (CLL) received intravenous doses of either 3.5-14 mg/m^2 of the mesylate salt of Compound 1 administered as a 1-hour infusion, or a 20-40 mg/m2 dose via a 3-hour infusion. These infusions were administered over a period of several weeks to several months.

## COC1=CC(c2cc3ccccc3[nH]2)=N/C1=C\c1[nH]c(C)cc1C [Compound 1]
[1]; MDS patients, mesylate salt i.v. 7-40 mg/m^2 as 24-hour infusion every two weeks, FIG. 2A
  patients who showed hematological improvement in hemoglobin levels: Three out of eight patients
[1]; MDS patients, mesylate salt i.v. 7-40 mg/m^2 as 24-hour infusion every two weeks, FIG. 2B, patient 3 was not thrombocytopenic at start
  patients who showed platelet count elevation: these three patients showed platelet count elevation
[1]; among the three MDS patients with hemoglobin improvement, FIG. 2A
  patients becoming transfusion independent (hemoglobin responders): two of the patients
[1]; among the three MDS patients with platelet count elevation, FIG. 2B
  patients becoming transfusion independent (platelet responders): one of the patients
[2]; CLL patients with initial hemoglobin counts of less than 11 g/dL, mesylate salt i.v. 3.5-40 mg/m^2
  anemic patients who showed significant hemoglobin elevation: three out of eleven anemic patients
[2]; CLL patients with initial platelet counts less than 150×10^9/L, mesylate salt i.v. 3.5-14 mg/m^2 as 1-hour infusion or 20-40 mg/m2 as 3-hour infusion, over several weeks to several months
  patients having thrombocytopenia who showed significant increases in platelet count: Four patients out of fourteen patients
[2]; among the three anemic CLL patients with hemoglobin elevation, FIG. 1
  patients becoming transfusion independent (hemoglobin responders): two of the patients
[2]; four responding thrombocytopenic CLL patients, mesylate salt i.v. 3.5-40 mg/m^2
  increase in platelet count in responding patients: over 50%
